In data set [1] the test system is pregnant rats. In words: gestation of treated pregnant rats. The class given is in vivo. The settings on record: 25 mcg/kg b.w./day per os, control rats had normal delivery.
The test system of data set [2] is adult female rats. The experiment in a line: fertility of adult female rats treated before mating. The class given is in vivo. The settings on record: 25 mcg/kg b.w./day per os for 10 days before mating.
Data set [3] relates to mice. The note with it: oral route, cited from earlier work.
For data set [4], the system named is adult female rats (Sprague Dawley). The experiment in a line: pup weight and starvation during lactation of treated mother rats. It is filed as in vivo. As for the experimental part:
15 adult female rats (Sprague Dawley) at their second delivery were randomly divided into 3 groups of 5 animals each. One group served as control, the other two groups were treated with different dosages of cabergoline: animals of the former group received it at the dose of 25 mcg/kg b.w./day; animals of the latter one received it at the dose of 100 mcg/kg b.w./day, starting from the day following the delivery.
Cabergoline was administered with a pellet of standard feed for breeding rats (Altromin MT@ of the firm Rieper, Bolzano). After complete consumption of the medicated pellet, food and water were made available "ad libitum".
At the dose of 100 mcg/kg b.w./day 100% of pups starved already within the first week of lactation (see Table 1).

In data set [5] the test system is young female rats. In words: onset of sexual maturity in young female rats at impuberal stage. It is filed as in vivo. The note with it: 25 mcg/kg body weight/day per os.
Data set [6] relates to prolactin incretion. The experiment in a line: inhibiting action on prolactin incretion after a single oral dose. It is filed as in vivo. The settings on record: single oral dose of 100 mcg/kg b.w., female rats, time after treatment. The procedure:
At a single oral dose of 100 micrograms per kg body weight (100 mcg/kg b.w.) in female rats, the inhibiting action on the prolactin incretion remains remarkably high more than 72 hours after treatment.

Data set [7] relates to rats. The note with it: oral route, cited from earlier work.

Where two headings read alike, the source gives them in different places.

As for `C=CCN1C[C@H](C(=O)N(CCCN(C)C)C(=O)NCC)C[C@@H]2c3cccc4[nH]cc(c34)C[C@H]21` [cabergoline, 1-ethyl-3-(3'-dimethylaminopropyl)-3-(6'-allylergoline-8'β-carbonyl)-urea], the gestation result in data set [1] is listed as “interrupted their gestation after about ten days”. In addition, the fertility result in data set [2] is recorded as “completely inhibited”. For the same compound, the “LD50 (Lethal Dose 50)” value in data set [3] (female mice) is 200 mg/kg b.w; in data set [3] (male mice), 350 mg/kg b.w. Moreover, in data set [4] (25 mcg/kg b.w./day to the mother, 7th day of lactation, mean ± SD), the “Pups mean weight (in grams) at lactation days 7th” value is listed as 7.9 ±1.6 grams. In data set [4] (25 mcg/kg b.w./day to the mother, 14th day of lactation, mean ± SD), the “Pups mean weight (in grams) at lactation days 14th” value was 10.5 ±0.5 grams. Besides, the dead pups is recorded as 40 in data set [4] (25 mcg/kg b.w./day to the mother, 14th day of lactation, of 63 pups) and “- (65 dead)” in data set [4] (100 mcg/kg b.w./day to the mother, 7th day of lactation, of 65 pups). Further, the “Pups mean weight (in grams) at lactation days 21st” value in data set [4] (25 mcg/kg b.w./day to the mother, 21st day of lactation, mean ± SD) is reported as 14.7 ±0.7 grams. In addition, in data set [4] (25 mcg/kg b.w./day to the mother, at the 7th, 14th and 21st day of lactation), the “body weight increase of the pups” value was “remarkably reduced”. For the same compound, the pups starved result is reported as “about 60%” in data set [4] (25 mcg/kg b.w./day to the mother, within the second week of lactation) and 100% in data set [4] (100 mcg/kg b.w./day to the mother, within the first week of lactation). Besides, in data set [5], the “onset of the sexual maturity” value was “remarkably delayed”. Moreover, in data set [6], the “time for which the inhibiting action on the prolactin incretion remains remarkably high” value is “more than 72 hours”. In addition, the LD50 in data set [7] (female rats (second value of 'respectively')) was 350 mg/kg b.w; in data set [7] (male rats (first value of 'respectively')), 400 mg/kg b.w.

Source of the values: patent EP0470325A1, “Composition and method to keep under control the reproduction rate of vertebrate animals by means of a composition containing peripheral dopamine agonists” (priority 1990, dated 1992).
